Results as given in publication PMC6774960, “Design, synthesis and biological evaluation of a series of new resveratrol analogues as potential anti-cancer agents” (Royal Society Open Science, 2019).

Experiments:
[1] = MTT cytotoxicity test, Vero; type: cell-based, African green monkey; settings: African green monkey, Vero cells (normal African green monkey kidney), average of three determinations
Protocol: (§1) Vero cells are non-tumorigenic cell lines and are important raw materials as the research and production of biological products. Vero cells show low tumorigenicity and had been approved for use in the production of human virus vaccines. Thus, Vero cells were chosen as a control for cytotoxicity. All compounds were evaluated for their cell toxicity against Vero and normal human hepatocytes cells line (LO2) using MTT assays.
(§2) The anti-proliferative and cytotoxicity activity was determined using MTT assay. Human cervical carcinoma HeLa cells, human hepatocellular carcinoma HepG2 cells, human lung carcinoma A549 cells were representative in the anti-proliferation assay, which were obtained from the Shanghai Institute of Cell Biology (Shanghai, China). Normal African green monkey kidney Vero cells were a gift from Dr Xiumiao He at Guangxi University for Nationalities. Normal human hepatocytes LO2 cells were a gift from Dr Xing Lin at Guangxi Medical University. The HepG2, Hela, LO2 and Vero cells were cultured in Dulbecco's modified Eagle's medium (DMEM, Gibco) and the A549 cells were cultured in RPMI1640 (Gibco), both media were supplemented with 10% fetal calf serum and antibiotics (100 IU ml^−1 penicillin, 100 IU ml^−1 streptomycin; Amresco).
(§3) Cells were seeded in 96-well microtiter plates at a density of 1 × 10^4 cells well^−1 and incubated with different concentrations of compound (6.25, 12.50, 25.00, 50.00 to 100.00 µM), cisplatin and paclitaxel in RPMI-1640 or DMEM at 37°C with 5% CO2. After 24 h, cell morphology was observed using a light microscope, and then 20 µl of MTT solution (5 mg ml^−1) was added to the well and incubated for 4 h, then cell survival was determined by measuring the optical density (OD) absorbance at a wavelength of 570 nm using an ELISA microplate reader. The inhibition rate (IR) following each compound treatment was determined by the following equation: IR (%) = (1 − ODexp/ODcon) × 100%, where ODexp and ODcon are the OD of the treated and untreated cells, respectively. Cisplatin and paclitaxel were used as positive control drugs.

A549 cells = assay: MTT anti-proliferation assay, A549; type: cell-based, human; settings: average of three determinations
Protocol: The 22 synthesized resveratrol compounds were evaluated for anti-proliferative activities against three human cancer cell lines, including HepG2, A549 and HeLa cells, using 3-[4,5-dimethylthiazol-2-yl]-2,5 diphenyl tetrazolium bromide (MTT) assays. Paclitaxel, a well-known tubulin inhibitor, was used as a positive control. […] Therefore, the inhibitory activity of the compounds depended not only on the 2-position substitution of acrylic acid, but also on the 3-position substitution of acrylic acid.
as §2, §3

HepG2 cells [2] = assay: Cell cycle assay by flow cytometry; type: cell-based, human; settings: 24 h, mean ± s.d.
Protocol: To evaluate the effects of compound r on cell cycle progression of HepG2, cells were treated with compound r at different concentrations (0, 5, 15 and 45 µM) for 24 h and then examined by flow cytometry. The accumulation of cells in S phase increased with increasing concentration of compound r. Approximately 18.36 ± 1.93%, 19.39 ± 2.06%, 29.9 ± 0.87% and 34.24 ± 1.00% of cells were arrested in S phase in response to 0, 5, 15 and 45 µM compound r, respectively. In comparison, 39.56 ± 0.97% cells were arrested in S phase after treatment with 20 µM cisplatin for 24 h.
Figure 5. Cells treated with 0, 5, 15 and 45 µM compound r for 24 h were collected and analysed by flow cytometry. Images were representative of three independent experiments. Values represented the mean ± s.d.; versus blank, *p < 0.01, **p < 0.001; versus control ^#p < 0.01, ^##p < 0.001.
Cells were treated with compound r (0, 5, 15, 45 µM) or 20 µM of cisplatin as the control for 24 h. Cells were collected by centrifugation (1000 rpm, 5 min), washed with PBS and fixed with 70% ice-cold ethanol overnight at 4°C. The cell cycle was examined on a flow cytometer using a cell cycle analysis kit (Beyotime Biotechnologyin, China) in accordance with the manufacturer's instructions.

[3] = MTT cytotoxicity test, LO2; type: cell-based, human; settings: human, LO2 cells (normal human hepatocytes), average of three determinations
Protocol: as §1, §2, §3

HeLa cells = assay: MTT anti-proliferation assay, HeLa; type: cell-based, human; settings: 24 h, average of three determinations
Protocol: The 22 synthesized resveratrol compounds were evaluated for anti-proliferative activities against three human cancer cell lines, including HepG2, A549 and HeLa cells, using 3-[4,5-dimethylthiazol-2-yl]-2,5 diphenyl tetrazolium bromide (MTT) assays. Paclitaxel, a well-known tubulin inhibitor, was used as a positive control.
as §2
After 24 h, cell morphology was observed using a light microscope, and then 20 µl of MTT solution (5 mg ml^−1) was added to the well and incubated for 4 h, then cell survival was determined by measuring the optical density (OD) absorbance at a wavelength of 570 nm using an ELISA microplate reader. […] Cisplatin and paclitaxel were used as positive control drugs.

HepG2 cells [4] = assay: Morphologic observation by light microscope; type: cell-based, human; settings: HepG2, 15 and 45 µM, 24 h
Protocol: Morphological observations can directly reflect the effects of drugs on cells. HepG2 cells were cultured with increasing concentrations of compound r (0, 5, 15 and 45 µM) for 24 h and observed using a light microscope. The cell morphology was clearly altered with the increase in drug concentration (figure 2).
Figure 2. Effect of compound r on the microscopic examination of HepG2 cells. Morphology of HepG2 treated with compound r (0, 5, 15 and 45 µM) and cisplatin (20 µM) for 24 h. Light microscopy photographs, with 40× objective.
as §3

IC50 (A549 cells; 24 h): 3.8 ± 0.3 µM
IC50 (A549 cells; Homo sapiens, A549, 24 h): 3.77 µM
IC50 (HeLa cells): 4.8 ± 0.8 µM
IC50 (HeLa cells; Homo sapiens, HeLa): 4.79 µM
Compound: COc1ccc(C(=Cc2cc(C(F)(F)F)ccc2Cl)C(=O)O)cc1 [compound r, 3-(2-chloro-5-(trifluoromethyl)phenyl)-2-(4-methoxyphenyl) acrylic acid]
CC50 at 24 h [1]: 84 ± 3 µM
cells arrested in S phase (HepG2 cells [2]; HepG2, 5 µM): ~19.39 ± 2.06%
cells arrested in S phase (HepG2 cells [2]; HepG2, 15 µM): ~29.9 ± 0.87%
cells arrested in S phase (HepG2 cells [2]; HepG2, 45 µM): ~34.24 ± 1.00%
CC50 at 24 h [3]: > 100 µM
cell morphology (HepG2 cells [4]): shrinkage, rounding and detachment from the plate surface
